Measurements from US20250287930A1, “REGULATION OF IMMUNE RESPONSES THROUGH SELECTIVE NEURAL ACTIVATION” (The Trustees of Columbia University in the City of New York, priority 2024, published 2025).

Key:
[1] = tested on: LPS-activated neurons in the cNST; experiment: Chemogenetic activation of LPS-TRAPed cNST neurons, cytokines; type: in vivo, mice
Procedure: (§1) All stereotaxic surgery procedures were carried out using aseptic technique. […] The viral constructs were injected into the cNST through a small craniotomy. The injection coordinates (based on Paxinos stereotaxic coordinates) for virus delivery in the cNST were as follows: caudal 7.5 mm, lateral ±0.3 mm, ventral 3.7-4 mm, all relative to Bregma. In chemogenetic experiments, TRAP2, Dbh-cre, Vglut2-cre and Vgat-cre mice received bilateral injections of 200 nl of AAV9-Syn-DIO-hM3Dq (Addgene, #44361-AAV9) and 300 nl of AAV9-Syn-DIO-hM4Di (Addgene, #44362-AAV9) in the cNST. Equivalent volumes of AAV9-Syn-DIO-mCherry (Addgene, #50459-AAV9) were injected as controls. For fiber photometry experiments, Vglut2-cre mice were unilaterally injected with 100 nl of AAV9-Syn-Flex-GCaMP6s (Addgene, #100845-AAV9) in the cNST, and an optical fiber (400 μm core, 0.48 NA, Doric Lenses) was implanted 50-100 μm above the GCaMP virus injection site.
(§2) The TRAP strategy was used in TRAP2 mice to gain genetic access to LPS-activated neurons in the cNST. […]
(§3) When using TRAP2 animals, at least 4 weeks elapsed between TRAPing and CNO treatment. […] Cytokines in the blood were measured using commercially available ELISA kits (R&D), following manufacturer's instructions. […]

cNST neurons [2] = experiment: Fos induction in the cNST after intraperitoneal immune stimulation; type: in vivo, mice; details: for Fos induction in the cNST: intraperitoneal injection, brains taken 2 h later
Procedure: (§4) Mice housed in their home cages were injected intraperitoneally with lipopolysaccharide (LPS, 50 μg kg-1, Cell Signaling Technology, #14011), lipoteichoic acid (LTA, 1 mg kg-1 Sigma, #L2512), Flagellin (20 μg kg-1, Sigma Aldrich #SRP8029), Profilin (20 μg kg-1, Sigma Aldrich, #SRP8050), Zymosan (2.5 mg kg-1, Sigma Aldrich #Z4250), IL-10 (100 μg kg-1, BioLegend, #575804), a cocktail of IL-6 (100 μg kg-1, BioLegend #575706), IL-1β (100 μg kg-1, R&D, #401-ML) and TNF-α (100 μg kg-1, R&D, #410-MT), or saline control (0.9% NaCl), then 2 h later, perfused transcardially with PBS followed by 4% paraformaldehyde. Brains were dissected, fixed in 4% PFA overnight at 4° C., and then sliced coronally at 100 μm thickness. The brain sections were permeabilized and blocked with 10% normal donkey serum (EMD Millipore, #S30) in PBS containing 0.3% Triton X-100. Sections were incubated with an anti-Fos primary antibody (SYSY, #226004 guinea pig, diluted 1:5,000) at 4° C. overnight, followed by labeling with a secondary antibody (Alexa Fluor 647-conjugated donkey anti-guinea pig, Jackson ImmunoResearch, #706605148) at room temperature for 2 h. For double RNA in situ hybridization, fixed frozen nodose ganglia or brains were sectioned at 16 μm thickness and processed for mRNA detection using the RNAscope Fluorescent Multiplex Kit (Advanced Cell Diagnostics) following the manufacturer's instructions. The following RNAscope probes were used: Fos (#316921-C2), Dbh (#464621-C1), Trpa1 (#400211-C3) and Calca (#578771-C2), GFP (#400281-C1). Images were acquired using an Olympus FluoView 1000 confocal microscope. Quantification of fluorescent signals was carried out by manually counting the number of positive neurons.

vagal sensory neurons = experiment: Vagal calcium imaging of nodose ganglion (GCaMP6s in all vagal sensory neurons); type: in vivo, mice; details: for number of responding vagal sensory neurons: of 423 imaged vagal sensory neurons, cytokine intraperitoneal; for calcium activity in a subset of vagal sensory neurons: intraperitoneal cytokine, nodose ganglion
Procedure: (§5) Calcium imaging of the nodose ganglion was conducted as described previously (Li, M. et al. Nature 610, 722-730, (2022); Tan, H. E. et al. Nature 580, 511-516, (2020)). For imaging in response to intragastric delivery of glucose (or linoleic acid), and IP injections of saline control and cytokines, a typical recording session consisted of: 1st: saline; 2nd: one of the three pro-inflammatory cytokines (TNF-α, IL-1β or IL-6); 3rd: anti-inflammatory cytokine (IL-10); 4th and 5th: two trials with glucose (or linoleic acid); each trial was 5 min. Cytokines were injected 1 min after the onset of the recording. Glucose (500 mM) and linoleic acid (10%) was delivered intragastrically. For all experiments 100 μg kg-1 of each cytokine was used. To deliver cytokines […], a segment of the intestine was placed in a custom-made perfusion chamber while still keeping it connected to the remainder of the gastrointestinal tract (no carbogenation). Each recording session included six interleaved trials, with 2 trials for each stimulus. Trials were 15 mins long, and consisted of a 180-s baseline (saline), a 180-s cytokine or control stimulus, and a 9-min washout (saline) period. The flow rates were maintained at around 600 μl min-1 throughout the experiment to minimize mechanical responses that may occur during the transition between trials. Cytokines were dissolved in saline at the concentration of 1 μg ml-1. During the entire perfusion session, all of the solutions were maintained at 37° C.
Imaging data was acquired exactly as previously described (Li, M. et al. Nature 610, 722-730, (2022); Tan, H. E. et al. Nature 580, 511-516, (2020)). Neuronal activity was analyzed for significant stimulus-evoked responses as described. The baseline distribution of deviations was first computed from the median for each cell throughout the entire experiment using periods prior to the stimulus delivery. Subsequently, this baseline was utilized to derive a modified z-score by subtracting the median and dividing by the median absolute deviation. Trials with an average modified z-score above 1.6 for the 180s (stimuli delivered via IP) or 480s (stimuli delivered via perfusion) following the initiation of stimulation were classified as responding trials (all responders had minimal peak amplitudes of 1% ΔF/F). Z-scores from responders were normalized across stimuli to generate heat maps of normalized fluorescence traces.

DBH neurons in the cNST = experiment: Fos induction in DBH neurons in the cNST by LPS and cytokine stimulation; type: in vivo; details: Dbh-cre mice, intraperitoneal injection
Procedure: as §4, with “For double RNA in situ hybridization, fixed frozen nodose ganglia or brains were sectioned at 16 μm thickness and processed for mRNA detection using the RNAscope Fluorescent Multiplex Kit (Advanced Cell Diagnostics) following the manufacturer's instructions. The following RNAscope probes were used: Fos (#316921-C2), Dbh (#464621-C1), Trpa1 (#400211-C3) and Calca (#578771-C2), GFP (#400281-C1). Images were acquired using an Olympus FluoView 1000 confocal microscope.” left out

cNST neurons [3] = experiment: Fiber photometry of LPS-evoked activity in the cNST (GCaMP6s, Vglut2-cre mice); type: in vivo
Procedure: as §1
Photometry experiments were conducted at least 14 days after the stereotaxic viral injection and fiber implantation (see the section on stereotaxic surgery for details). Prior to the experiments, mice were acclimated to the recording chamber for 1 h per day over 3 consecutive days. On the 4th and 5th day, mice were recorded for the bulk GCaMP responses to saline and LPS (0.5 mg kg-1), respectively, in a 5 h recording session. Saline and LPS were intraperitoneally injected 15 min after the onset of recording. Real-time population-level GCaMP fluorescence signals were detected, amplified and recorded using a RZ5P fiber photometry system with Synapse software (Tucker Davis Technologies). The collected data were downsampled, detrended and smoothed by custom MATLAB code. The calcium transients were identified as described previously (Barretto, R. P. et al. Nature 517, 373-376, (2015); Rousseeuw, P. J. C., C. J. Am. Stat. Assoc. 88, 1273-1283, (1993); Jin, H., Fishman, Z. H., Ye, M., Wang, L. & Zuker, C. S. Cell 184, 257-271 e216, (2021)) and the area under the curve (AUC) was calculated by integrating fluorescence signal under identified calcium transients. […]

circulating cytokines = experiment: LPS-induced circulating cytokines in peripheral blood by ELISA; type: in vivo, mice
Procedure: When using TRAP2 animals, at least 4 weeks elapsed between TRAPing and CNO treatment. Two doses (2 mg kg-1 and 1 mg kg-1) of CNO were given intraperitoneally at 12 h and 1 h prior to saline or LPS stimulation. Two hours after the intraperitoneal injection of saline or LPS (0.1 mg kg-1), blood samples were collected from either the submandibular or the tail vein. Cytokines in the blood were measured using commercially available ELISA kits (R&D), following manufacturer's instructions. Saline and LPS experiments were conducted on the same cohort of mice but at least 7 days apart.
To examine LPS-induced cytokine responses over time, wild-type (C56BL/6J) mice were injected IP with saline or LPS, and peripheral blood samples were collected at 0, 2 hours, 4 hours, and 6 hours post-stimulation.

[4] = tested on: LPS-activated neurons in the cNST; experiment: Chemogenetic inhibition of LPS-TRAPed cNST neurons, LPS-evoked cytokines; type: in vivo, mice; set-up: unit not given here; details: LPS-treated but not silenced animals
Procedure: as §1, §2, §3

TRPA1 vagal neurons = experiment: Calcium imaging of TRPA1 vagal neurons; type: in vivo, mice
Procedure: as §5, with “Trials were 15 mins long, and consisted of a 180-s baseline (saline), a 180-s cytokine or control stimulus, and a 9-min washout (saline) period. The flow rates were maintained at around 600 μl min-1 throughout the experiment to minimize mechanical responses that may occur during the transition between trials. Cytokines were dissolved in saline at the concentration of 1 μg ml-1. During the entire perfusion session, all of the solutions were maintained at 37° C.” left out
Imaging data was acquired exactly as previously described (Li, M. et al. Nature 610, 722-730, (2022); Tan, H. E. et al. Nature 580, 511-516, (2020)). Neuronal activity was analyzed for significant stimulus-evoked responses as described. […] Z-scores from responders were normalized across stimuli to generate heat maps of normalized fluorescence traces.

C[N+]1([O-])CCN(C2=Nc3cc(Cl)ccc3Nc3ccccc32)CC1 [CNO, clozapine N-oxide]
anti-inflammatory cytokines (IL-10), change on activation [1]: very large increase | pro-inflammatory cytokines, change on activation [1]: dramatic suppression

Flagellin
Fos induction in the cNST (cNST neurons [2]): robustly activated Fos

IL-1β: pro-inflammatory cytokine
number of responding vagal sensory neurons (vagal sensory neurons): 8

Profilin
Fos induction in the cNST (cNST neurons [2]): robustly activated Fos

lipopolysaccharide [LPS]
Fos expression in the cNST of Myd88−/− mice (cNST neurons [2]; Myd88−/− mice, LPS intraperitoneally, 2 h): largely absent | Fos induction in the cNST (cNST neurons [2]): robustly activated Fos | activation (Fos) of DBH neurons in the cNST (DBH neurons in the cNST): activate DBH neurons | reduction of average cNST response after vagotomy (cNST neurons [3]; LPS 0.5 mg kg-1): ~80% | cNST GCaMP6s response, AUC (area under the curve) (cNST neurons [3]; LPS 0.5 mg kg-1, after bilateral vagotomy): 10.6±6.1 | cNST GCaMP6s response, AUC (area under the curve) (cNST neurons [3]; LPS 0.5 mg kg-1, intact vagus): 52.6±7.2 | cytokine induction in Myd88−/− mice (circulating cytokines; IL-6, IL-1β, TNF-α, IL-10, 2 h after LPS): dramatically reduced | TNFa in the peripheral blood (circulating cytokines; control animals given LPS): 200 pg/mL | direct activation of vagal neurons (vagal sensory neurons; LPS 0.5 mg kg-1): not directly activated | IL-1β level [4]: 200 | IL-10 level [4]: 750

lipoteichoic acid [LTA]
Fos induction in the cNST (cNST neurons [2]): robustly activated Fos

tumor necrosis factor [TNF-α]
calcium activity in a subset of vagal sensory neurons (vagal sensory neurons): triggered robust activity | number of responding vagal sensory neurons (vagal sensory neurons): 13

B1: interleukin-10 (protein, UniProt P22301 19-178, looked up)
Interleukin-10: SPGQGTQSENSCTHFPGNLPNMLRDLRDAFSRVKTFFQMKDQLDNLLLKESLLEDFKGYLGCQALSEMIQFYLEEVMPQAENQDPDIKAHVNSLGENLKTLRLRLRRCHRFLPCENKSKAVEQVKNAFNKLQEKGIYKAMSEFDIFINYIEAYMTMKIRN
notes: anti-inflammatory cytokine
Fos induction in the cNST (cNST neurons [2]): induces significant Fos labelling | activation (Fos) of DBH neurons in the cNST (DBH neurons in the cNST): activate DBH neurons | number of responding vagal sensory neurons (vagal sensory neurons): 11/423 | activation of TRPA1-expressing vagal neurons (TRPA1 vagal neurons; GCaMP6s imaging): activated | number of responding TRPA1 neurons (TRPA1 vagal neurons; imaged TRPA1 neurons, IP or perfusion): 27 of 189

B2: interleukin-4 (protein, UniProt P05112 25-153, looked up)
Interleukin-4: HKCDITLQEIIKTLNSLTEQKTLCTELTVTDIFAASKNTTEKETFCRAATVLRQFYSHHEKDTRCLGATAQQFHRHKQLIRFLKRLDRNLWGLAGLNSCPVKEANQSTLENFLERLKTIMREKYSKCSS
notes: anti-inflammatory cytokine
calcium activity in a subset of vagal sensory neurons (vagal sensory neurons): triggered robust activity
